Publication PMC7658267, “Effects of CYP46A1 Inhibition on Long-Term-Depression in Hippocampal Slices ex vivo and 24S-Hydroxycholesterol Levels in Mice in vivo” (Frontiers in Molecular Neuroscience, 2020)
Where two headings read alike, the source gives them in different places.

Legend:
CYP46A1 [1] = molecular target: T1, CYP46A1 (Homo sapiens, UniProt Q9Y6A2); assay: recombinant human CYP46A1 microsomes, cholesterol to 24-hydroxycholesterol, LC-MS/MS ([…] with testosterone as substrate); format: biochemical
T1 sequence (Q9Y6A2 whole entry): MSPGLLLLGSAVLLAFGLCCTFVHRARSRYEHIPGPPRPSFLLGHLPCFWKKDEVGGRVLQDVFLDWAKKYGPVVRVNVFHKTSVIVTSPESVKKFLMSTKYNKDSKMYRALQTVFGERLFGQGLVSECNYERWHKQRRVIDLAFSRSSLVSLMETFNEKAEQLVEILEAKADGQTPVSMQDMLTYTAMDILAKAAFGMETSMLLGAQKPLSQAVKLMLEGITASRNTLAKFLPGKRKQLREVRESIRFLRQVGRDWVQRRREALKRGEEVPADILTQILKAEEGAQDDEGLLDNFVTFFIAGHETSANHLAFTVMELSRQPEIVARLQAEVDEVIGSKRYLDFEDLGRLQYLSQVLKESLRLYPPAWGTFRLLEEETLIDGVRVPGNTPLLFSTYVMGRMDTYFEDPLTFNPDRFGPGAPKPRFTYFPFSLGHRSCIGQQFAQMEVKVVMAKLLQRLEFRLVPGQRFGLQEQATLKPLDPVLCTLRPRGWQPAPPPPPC

Human 5-HT2A = molecular target: T2, Human 5-HT2A (Homo sapiens, UniProt P28223); assay: biochemical; parameters: CEREP off-target binding panel, per cent inhibition at 10 uM, n = 2
T2 construct: gene HTR2A
T2 sequence (P28223 whole entry): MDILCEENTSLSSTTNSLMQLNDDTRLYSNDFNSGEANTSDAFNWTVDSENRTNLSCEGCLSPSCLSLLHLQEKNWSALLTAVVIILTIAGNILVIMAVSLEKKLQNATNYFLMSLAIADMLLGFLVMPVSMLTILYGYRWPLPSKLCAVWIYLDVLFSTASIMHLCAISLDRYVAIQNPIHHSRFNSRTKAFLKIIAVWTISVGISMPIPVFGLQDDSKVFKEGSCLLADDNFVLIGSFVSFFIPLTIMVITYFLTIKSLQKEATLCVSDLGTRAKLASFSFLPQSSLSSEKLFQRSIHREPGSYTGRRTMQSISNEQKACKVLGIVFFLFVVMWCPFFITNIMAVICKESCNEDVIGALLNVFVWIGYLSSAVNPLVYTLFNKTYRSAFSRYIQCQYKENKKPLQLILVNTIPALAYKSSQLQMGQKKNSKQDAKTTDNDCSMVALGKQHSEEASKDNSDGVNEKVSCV

Human M2 = molecular target: T3, Human M2 (Homo sapiens, UniProt P08172); assay: biochemical; parameters: CEREP off-target binding panel, per cent inhibition at 10 uM, n = 2
T3 construct: gene CHRM2
T3 sequence (P08172 whole entry): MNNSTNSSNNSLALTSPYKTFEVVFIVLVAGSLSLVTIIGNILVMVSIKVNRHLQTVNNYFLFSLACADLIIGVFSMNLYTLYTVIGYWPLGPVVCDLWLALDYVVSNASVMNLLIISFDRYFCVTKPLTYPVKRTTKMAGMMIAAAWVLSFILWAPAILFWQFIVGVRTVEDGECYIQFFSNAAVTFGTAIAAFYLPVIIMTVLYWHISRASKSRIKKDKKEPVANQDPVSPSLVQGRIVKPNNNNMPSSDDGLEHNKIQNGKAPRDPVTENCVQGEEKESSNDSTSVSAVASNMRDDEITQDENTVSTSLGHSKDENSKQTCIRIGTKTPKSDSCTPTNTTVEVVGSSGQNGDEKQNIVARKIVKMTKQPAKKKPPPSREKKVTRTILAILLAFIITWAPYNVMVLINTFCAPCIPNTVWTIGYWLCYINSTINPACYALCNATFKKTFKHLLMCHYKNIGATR

Human β1 = molecular target: T4, Human β1 (Homo sapiens, UniProt P08588); assay: biochemical; parameters: CEREP off-target binding panel, per cent inhibition at 10 uM, n = 2
T4 construct: gene ADRB1
T4 sequence (P08588 whole entry): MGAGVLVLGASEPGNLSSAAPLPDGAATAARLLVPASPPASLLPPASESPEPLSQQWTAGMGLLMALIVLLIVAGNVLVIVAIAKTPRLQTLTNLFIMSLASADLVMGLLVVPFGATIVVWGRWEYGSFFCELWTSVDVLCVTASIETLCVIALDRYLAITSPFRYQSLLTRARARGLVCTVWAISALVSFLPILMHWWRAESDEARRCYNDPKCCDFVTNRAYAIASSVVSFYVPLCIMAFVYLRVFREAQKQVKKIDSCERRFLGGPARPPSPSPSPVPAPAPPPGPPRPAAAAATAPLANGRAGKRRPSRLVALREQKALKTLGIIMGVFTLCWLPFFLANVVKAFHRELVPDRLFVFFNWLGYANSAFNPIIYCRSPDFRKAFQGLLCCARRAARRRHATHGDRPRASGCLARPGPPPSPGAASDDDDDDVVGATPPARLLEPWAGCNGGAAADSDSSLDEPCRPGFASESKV

CYP46A1 [2] = molecular target: T1, CYP46A1; assay: recombinant human CYP46A1 microsomes, cholesterol to 24-hydroxycholesterol, LC-MS/MS ([…] with testosterone as substrate); format: biochemical; remark: listed apart in the source

SMILES | IC50 (CYP46A1 [1]) [nM] | inhibition at 10 µM (Human 5-HT2A) [%] | inhibition at 10 µM (Human M2) [%] | inhibition at 10 µM (Human β1) [%] | IC50 (CYP46A1 [2]) [nM]
O=C(c1cnc2c(-c3cnco3)cc(C(F)(F)F)cn12)N1C2CCC1COC2 [compound 1, (3-oxa-8-azabicyclo[3.2.1]octan-8-yl)(8-(oxazol-5-yl)-6-(trifluoromethyl)imidazo[1,2-a]pyridin-3-yl)methanone] | 22 | – | – | – | –
O=C(c1cccnc1-c1ccncn1)N1CCC(O)(Cc2ccc(F)cc2)CC1 [compound 2, (4-(4-fluorobenzyl)-4-hydroxypiperidin-1-yl)(2-(pyrimidin-4-yl)pyridin-3-yl)methanone] | – | -5 | 12.3 | -0.7 | 32
